# Marks after values point to notes of the source that are not given here.
# How the values were obtained:
# [1] = test system: type II collagen-induced arthritis rat; assay: Type II collagen-induced arthritis rat: condition and body weight; format: in vivo, Wistar rat
# Description: (§1) Under aseptic conditions, 10 mg chicken type II collagen protein was fully mixed with 5 ml 10 mM glacial acetic acid solution, and stirred overnight in refrigerator at 4° C. to fully dissolve it. It was mixed with complete Freund's adjuvant in equal volume in ice bath to fully emulsify into an emulsion with a collagen concentration of 1 mg/ml.
# (§2) Wistar rats are divided into a modeling group and a false modeling group. After the modeling group rats were narcotized with intraperitoneal injection of pentobarbital, the above emulsion was injected intracutaneously at 3 to 4 positions at back, tail root or the like, 0.3 ml for each, an primary immunity was carried out. After 7 days, a secondary immunity was carried out, the emulsifying agent complete Freund's adjuvant of initial immunity was replaced with incomplete Freund's adjuvant, 0.1 ml the emulsion was injected under sevoflurane inhalation anesthesia wherein the injection position is different from the last time. In false modeling group, the emulsion was replaced with solvent glacial acetic acid solution.
# (§3) Successfully modeled rat in the modeling group were randomly divide into 5 groups: low, middle, high-dose koumine treatment group, positive control group, negative control group, 10 rats for each group. Beginning from Day 21 after modeling, corresponding intervention was carried out as following in 10 days continuously: 0.6, 3, 15 mg/kg koumine were intragastrically administrated to the low, middle, high-dose koumine treatment group respectively, 1 time every day; 1 mg/kg amethopterin was administrated to the positive control group, 1 time every 3 days, equal volume of physiological saline was administrated for the remained days; equal volume of physiological saline was administrated to the negative control group.
# [2] = test system: type II collagen-induced arthritis rat; assay: Type II collagen-induced arthritis rat: thermal hyperalgesia (thermal withdrawal latency); format: in vivo, Wistar rat; settings: amethopterin 1 mg/kg once every 3 days
# Description: as §1, §2, §3
# 1 hour after intragastric administration, the thermal withdrawal latency of each group was determined by the photo-thermal dolorimeter; the mechanical pain threshold of rats of each group was determined by Von-frey electromechanical pain threshold detector, thus the condition of thermal hyperalgesia and mechanical hyperalgesia of rats of each group was observed.
# adjuvant arthritis mice = assay: Adjuvant arthritis mice: hyperalgesia (phlogogenic paw thermal withdrawal latency); format: in vivo, Kunming mice
# Description: BCG was inactivated in water bath at 80° C., and fully emulsified along with complete Freund's adjuvant to form complete Freund's adjuvant emulsion containing 5 mg/ml BCG, preserved at 4° C., and shake well before use. The Kunming mice were divided into a modeling group and a false modeling group. According to the method recited in the literature [Rasool M, Sabina E P, Lavanya B. Anti-inflammatory effect of Spirulina fusiformis on adjuvant-induced arthritis in mice. Biol Pharm Bull. 2006, 29(12):2483-7], for the modeling group, the model was prepared by intradermal injection of 20 ul the emulsion under the plantar surface of right paws after the mice was narcotized; for the false modeling group, the emulsion was replaced with physiological saline. For the modeling group, the animals were screened on Day 8 after injection: the mice with the injected paw thickness increased >0.5 mm and thermal hyperalgesia occurred (paw thermal withdrawal latency <8 second) were selected as experimental subjects. The selected mice were divided into 5 groups randomly: low, middle, high dose treatment group (0.8, 4, 20 mg/kg); indomethacin positive control group (10 mg/kg); negative control group (physiological saline), each comprising 12 animals. Day 8 after inflammation, intragastric administration was carried out on each group to give corresponding intervention, one time per day for 10 days continuously.
# 30 min after intragastric administration, the phlogogenic paw thermal withdrawal latency of the mice in each group was determined by photo-thermal dolorimeter to reflect animals' hyperalgesia status.
SMILES,"Body weight after intervention, Day 7 ([1]; amethopterin 1 mg/kg once every 3 days from Day 21, Day 7)","Body weight after intervention, Day 14 ([1]; amethopterin 1 mg/kg once every 3 days from Day 21, Day 14)","Body weight after intervention, Day 21 ([1]; amethopterin 1 mg/kg once every 3 days from Day 21, Day 21)","Body weight after intervention, Day 31 ([1]; amethopterin 1 mg/kg once every 3 days from Day 21, Day 31)","Body weight before intervention ([1]; amethopterin 1 mg/kg once every 3 days, from Day 21 after modeling for 10 days, before intervention)","Thermal stimulus withdrawal latency, Before intervention ([2]; before intervention)","Thermal stimulus withdrawal latency, Intervention Day 2 ([2]; intervention Day 2)","Thermal stimulus withdrawal latency, Intervention Day 4 ([2]; intervention Day 4)","Thermal stimulus withdrawal latency, Intervention Day 6 ([2]; intervention Day 6)","Thermal stimulus withdrawal latency, Intervention Day 8 ([2]; intervention Day 8)","Thermal stimulus withdrawal latency, Intervention Day 10 ([2]; intervention Day 10)","Thermal stimulus withdrawal latency, Before intervention (adjuvant arthritis mice; indomethacin 10 mg/kg intragastric once daily for 10 days from Day 8 after inflammation, before intervention)","Thermal stimulus withdrawal latency, Intervention Day 4 (adjuvant arthritis mice; indomethacin 10 mg/kg intragastric once daily from Day 8, Day 4)","Thermal stimulus withdrawal latency, Intervention Day 8 (adjuvant arthritis mice; indomethacin 10 mg/kg intragastric once daily from Day 8, Day 8)","Thermal stimulus withdrawal latency, Intervention Day 12 (adjuvant arthritis mice; indomethacin 10 mg/kg intragastric once daily from Day 8, Day 12)","Thermal stimulus withdrawal latency, Intervention Day 16 (adjuvant arthritis mice; indomethacin 10 mg/kg intragastric once daily from Day 8, Day 16)","Thermal stimulus withdrawal latency, Intervention Day 18 (adjuvant arthritis mice; indomethacin 10 mg/kg intragastric once daily from Day 8, Day 18)"
"CN(Cc1cnc2nc(N)nc(N)c2n1)c1ccc(C(=O)N[C@@H](CCC(=O)O)C(=O)O)cc1 [Positive control group, Amethopterin, reference compound]",154.5 ± 8.36 g,178.2 ± 5.93 g,203.1 ± 9.11 g,227.0 ± 12.68 g,129.8 ± 6.21 g,8.05 ± 1.01 s,8.48 ± 0.73 s,9.15 ± 0.57**^★★ second,9.27 ± 1.09**^★ second,9.50 ± 1.08**^★★ second,10.31 ± 1.21**^★ second,–,–,–,–,–,–
"COc1ccc2c(c1)c(CC(=O)O)c(C)n2C(=O)c1ccc(Cl)cc1 [Positive control, Indomethacin, reference compound]",–,–,–,–,–,–,–,–,–,–,–,13.8 ± 1.2 s,5.9 ± 1.1^★★ second,4.1 ± 0.8^★★ second,8.9 ± 0.9**^★ second,9.8 ± 1.6**^★ second,10.1 ± 1.2**^★★ second
